Test [1] deals with BH4 levels in SK-N-BE (2) cells. Nature of the test: SKN-N-BE (2) cellular assay, BH4 levels by LC-MS. Format: cell-based. The note with it: Homo sapiens, SKNBE2, read-out: SK-N-BE(2) IC50, SK-N-BE (2) cells, BH4 levels by LC-MS.
Test [2] concerns the target SNAP-hSPR (sepiapterin reductase, SPR) (Homo sapiens, UniProt P35270). In words: biochemical. The class given is binding. The note with it: terbium labelled SNAP-hSPR / SSZ labelled SNAP-EGFP; read-out: hTR-FRET IC50.

Sequence of SNAP-hSPR (sepiapterin reductase, SPR) (P35270 whole entry): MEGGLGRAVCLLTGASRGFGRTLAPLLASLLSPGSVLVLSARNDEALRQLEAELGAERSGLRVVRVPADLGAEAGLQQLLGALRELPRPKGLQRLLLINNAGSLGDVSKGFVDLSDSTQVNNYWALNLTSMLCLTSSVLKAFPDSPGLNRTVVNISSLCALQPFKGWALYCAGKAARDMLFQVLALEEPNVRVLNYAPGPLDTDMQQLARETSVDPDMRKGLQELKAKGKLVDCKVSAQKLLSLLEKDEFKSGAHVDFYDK

With `Cc1c(C(=O)N2CC3(CCCN3C(=O)OC(C)(C)C)C2)cnn1-c1nn2cccc2c(=O)[nH]1` [Q-0785], the IC50 turned out to be 200 nM in test [1] and 1 nM in test [2].

`Cc1c(C(=O)N2CCN(c3ccc(C#N)cn3)CC2)cnn1-c1nn2cccc2c(=O)[nH]1` [Q-0845]: the IC50 in test [1] is 400 nM; in test [2], 3 nM.

For the molecule `Cc1c(C(=O)N2CCC(C(C)(O)C(F)(F)F)CC2)cnn1-c1nc2c(c(=O)[nH]1)CCC2` (stereo not shown) [Q-0449], the IC50 in test [1] was determined as 78 nM; in test [2], 3 nM.

`Cc1c(C(=O)N2CCC(C(F)(F)F)CC2)cnn1-c1nn2c(F)ccc2c(=O)[nH]1` [Q-0606]: the values for the IC50 in test [1] and in test [2] were 51 nM and 2 nM, respectively.

For `O=C(c1cnn(-c2nc3sccc3c(=O)[nH]2)c1)N1CCC(C(F)(F)F)CC1` [Q-0753], the concentration for half-maximal inhibition (IC50) in test [1] was found to be 200 nM; in test [2], 2 nM.

With `Cc1c(C(=O)N2CCC(CC(F)(F)F)CC2)cnn1-c1nc2ccsc2c(=O)[nH]1` [Q-0704], the IC50 was 200 nM in test [1] and 2 nM in test [2].

Regarding `Cc1nn(-c2nc3ccsc3c(=O)[nH]2)c(C)c1C(=O)N1CCC(C(F)(F)F)CC1` [Q-0419], the IC50 in test [1] was determined as 700 nM; in test [2], 5 nM.

Turning to `Cc1cc(=O)[nH]c(-n2ncc(C(=O)NC3CCCC3)c2C)n1` [Q-0280], the IC50 in test [1] amounted to 16000 nM; in test [2], 60 nM.

With `Cc1c(C(=O)N(C)Cc2nnc(-c3ccc(Cl)cc3)o2)cnn1-c1nc2c(c(=O)[nH]1)CCC2` [Q-0486], the results for the IC50 in test [1] and in test [2] were 100 nM and 6 nM, respectively.

Take `Cc1c(C(=O)N2CCC(Oc3ccccc3)C2)cnn1-c1nc2c(c(=O)[nH]1)CCC2` (stereo not shown) [Q-0477]: the IC50 stood at 91 nM in test [1] and 5 nM in test [2].

For the molecule `O=C(c1cnn(-c2nc3ccsc3c(=O)[nH]2)c1)N1CCC(C2CC2)CC1` [Q-0711], the figures for the IC50 in test [1] and in test [2] were 86 nM and 2 nM, respectively.

For the molecule `Cc1c(C(=O)N2CC3CC(=O)CC3C2)cnn1-c1nn2cccc2c(=O)[nH]1` (stereo not shown) [Q-0824], the IC50 in test [1] is 1800 nM; in test [2], 5 nM.

As to `Cc1c(C(=O)N2CCC(C(C#N)C3CC3)CC2)cnn1-c1nn2cccc2c(=O)[nH]1` (stereo not shown) [Q-0855], the IC50 turned out to be 100 nM in test [1] and 1 nM in test [2].

Regarding `CCN(Cc1ccccc1)C(=O)c1cnn(-c2nc3c(c(=O)[nH]2)CCC3)c1C` [Q-0490], the results for the IC50 in test [1] and in test [2] were 100 nM and 7 nM, respectively.

Consider `O=C(c1cnn(-c2nc3c(c(=O)[nH]2)CCC3)c1)N1CCC(C2CC2)CC1` [Q-0706], for which the IC50 in test [1] was found to be 30 nM; in test [2], 2 nM.

Take `Cc1c(C(=O)N(C)CCc2c[nH]c3ccccc23)cnn1-c1nc2c(c(=O)[nH]1)CCC2` [Q-0497]: the concentration for half-maximal inhibition (IC50) in test [1] is 400 nM; in test [2] it was 9 nM.

As for `Cc1c(C(=O)N2CCN3CCC[C@@H]3C2)cnn1-c1nc2ccsc2c(=O)[nH]1` [Q-0556], the IC50 in test [1] was found to be 600 nM; in test [2], 7 nM.

`Cc1c(C(=O)N2CCCCC2)cnn1-c1nc2c(c(=O)[nH]1)CCC2` [Q-0633]: the values for the IC50 in test [1] and in test [2] were 400 nM and 5 nM, respectively.

Consider `Cc1c(C(=O)N2CCC(C(C)(C)C#N)CC2)cnn1-c1nc2c(c(=O)[nH]1)CCC2` [Q-0469], for which the IC50 in test [1] worked out at 37 nM; in test [2], 4 nM.

In the case of `O=C(c1cn(-c2nn3cccc3c(=O)[nH]2)nn1)N1CCC(C(F)(F)F)CC1` [Q-0781], the IC50 in test [1] turned out to be 200 nM; in test [2] it was 1 nM.

For `O=C(O)c1ccnc(-c2nc3c(c(=O)[nH]2)CCC3)c1` [Q-0558], the results for the IC50 in test [1] and in test [2] were 10000 nM and 5000 nM, respectively.

In the case of `Cc1c(C(=O)N2CCC(c3c[nH]c4ccccc34)CC2)cnn1-c1nc2c(c(=O)[nH]1)CCC2` [Q-0498], the IC50 in test [1] came out at 30 nM; in test [2], 20 nM.

Take `O=C(c1cnn(-c2nc3ccsc3c(=O)[nH]2)c1)N1CCC(c2nc3ccccc3s2)CC1` [Q-0528]: the IC50 in test [1] was 800 nM; in test [2], 70 nM.

In the case of `O=C(c1ccn(-c2nc3ccsc3c(=O)[nH]2)n1)N1CCC(C(F)(F)F)CC1` [Q-0390], the results for the IC50 in test [1] and in test [2] were 12000 nM and 20 nM, respectively.

As to `Cc1c(C(=O)N2CCC(O)(c3ccccc3)CC2C)cnn1-c1nc2c(c(=O)[nH]1)CCC2` (stereo not shown) [Q-0483], the figures for the IC50 in test [1] and in test [2] were 49 nM and 4 nM, respectively.

Consider `Cc1c(C(=O)N2CCn3c(nnc3C(F)(F)F)C2)cnn1-c1nn2cccc2c(=O)[nH]1` [Q-0859], for which the IC50 is 8300 nM in test [1] and 20 nM in test [2].

Consider `Cc1c(C(=O)N2CCC[C@H](C(F)(F)F)C2)cnn1-c1nc2c(c(=O)[nH]1)CCC2` (single isomer, unassigned) [Q-0475], for which the IC50 came out at 300 nM in test [1] and 5 nM in test [2].

Regarding `Cc1c(C(=O)N2CCC(S(=O)(=O)c3ccc(F)c(F)c3)CC2)cnn1-c1nc2ccsc2c(=O)[nH]1` [Q-0597], the IC50 in test [1] was determined as 53 nM; in test [2], 3 nM.

For `Cc1c(C(=O)N2CC(O)(C3CC3)C2)cnn1-c1nn2cccc2c(=O)[nH]1` [Q-0814], the IC50 is 400 nM in test [1] and 2 nM in test [2].

On to `CC(C)(C#N)C1CCN(C(=O)c2cnn(-c3nc4c(c(=O)[nH]3)CCC4)c2C2CC2)CC1` [Q-0553], for which the figures for the IC50 in test [1] and in test [2] were 200 nM and 6 nM, respectively.

On to `Cc1c(C(=O)N2CCC3(CCCCN3)C2)cnn1-c1nc2c(c(=O)[nH]1)CCC2` (stereo not shown) [Q-0577, 2-(5-methyl-4-(2,6-diazaspiro[4.5]decane-2-carbonyl)-1H-pyrazol-1-yl)-6,7-dihydro-3H-cyclopenta[d]pyrimidin-4(5H)-one], for which the IC50 turned out to be 2100 nM in test [1] and 40 nM in test [2].

For `Cc1c(C(=O)N2CC3CN(C(=O)OC(C)(C)C)CC3C2)cnn1-c1nn2cccc2c(=O)[nH]1` (stereo not shown) [Q-0809], the IC50 in test [1] worked out at 900 nM; in test [2] it was 6 nM.

Turning to `Cc1c(C(=O)N2CCC3(CN(C(=O)OC(C)(C)C)C3)C2)cnn1-c1nn2cccc2c(=O)[nH]1` [Q-0748], the IC50 in test [1] turned out to be 900 nM; in test [2] it was 4 nM.

In the case of `Cc1c(C(=O)N2CCN3CCC[C@@H]3C2)cnn1-c1nc2c(c(=O)[nH]1)CCC2` [Q-0575], the IC50 in test [1] stood at 200 nM; in test [2], 3 nM.

Turning to `Cc1cc(=O)[nH]c(-n2ncc(C(=O)N3CCc4cn[nH]c4C3)c2C)n1` [Q-0328], the IC50 in test [1] amounted to 53000 nM; in test [2], 10 nM.

On to `O=C(c1cnn(-c2nc3ccsc3c(=O)[nH]2)c1)N1CCC(CC(F)(F)F)CC1` [Q-0712], for which the IC50 stood at 300 nM in test [1] and 2 nM in test [2].

With `Cc1c(C(=O)N2CCC3(CCCCN3)C2)cnn1-c1nc2ccsc2c(=O)[nH]1` (stereo not shown) [Q-0595], the IC50 in test [1] was 4400 nM; in test [2] it was 70 nM.

Consider `Cc1c(C(=O)N2CCN(C)c3ccccc32)cnn1-c1nn2cccc2c(=O)[nH]1` [Q-0759], for which the IC50 in test [1] came out at 200 nM; in test [2], 1 nM.

In the case of `Cc1c(C(=O)N2CCN(c3ccccc3Cl)CC2)cnn1-c1nc2c(c(=O)[nH]1)CCC2` [Q-0570], the half-inhibitory concentration (IC50) in test [1] was 23 nM; in test [2], 3 nM.

Consider `Cc1c(C(=O)N2CC3CC3(O)C2)cnn1-c1nc2ccsc2c(=O)[nH]1` (stereo not shown) [Q-0621], for which the IC50 was found to be 5200 nM in test [1] and 20 nM in test [2].

Regarding `Cc1c(C(=O)N2CC3C(C2)C3(F)F)cnn1-c1nn2cccc2c(=O)[nH]1` (stereo not shown) [Q-0807], the IC50 amounted to 400 nM in test [1] and 2 nM in test [2].

As usually defined, the IC50 is the concentration at which inhibition is half-maximal.

For the origin of these results see patent US9963462B2 (priority 2015, dated 2018).
